Consider 24 molecules from patent US6506766B1 (Abbott Laboratories, priority 1998, dated 2003).

For assay [1], the target named is T1, human progesterone receptor-A [PRA] isoform (Homo sapiens, UniProt P06401).
T1 construct: host or cells: insect SF21 cells (baculovirus)
T1 sequence (P06401 1-769 isoform P06401-2): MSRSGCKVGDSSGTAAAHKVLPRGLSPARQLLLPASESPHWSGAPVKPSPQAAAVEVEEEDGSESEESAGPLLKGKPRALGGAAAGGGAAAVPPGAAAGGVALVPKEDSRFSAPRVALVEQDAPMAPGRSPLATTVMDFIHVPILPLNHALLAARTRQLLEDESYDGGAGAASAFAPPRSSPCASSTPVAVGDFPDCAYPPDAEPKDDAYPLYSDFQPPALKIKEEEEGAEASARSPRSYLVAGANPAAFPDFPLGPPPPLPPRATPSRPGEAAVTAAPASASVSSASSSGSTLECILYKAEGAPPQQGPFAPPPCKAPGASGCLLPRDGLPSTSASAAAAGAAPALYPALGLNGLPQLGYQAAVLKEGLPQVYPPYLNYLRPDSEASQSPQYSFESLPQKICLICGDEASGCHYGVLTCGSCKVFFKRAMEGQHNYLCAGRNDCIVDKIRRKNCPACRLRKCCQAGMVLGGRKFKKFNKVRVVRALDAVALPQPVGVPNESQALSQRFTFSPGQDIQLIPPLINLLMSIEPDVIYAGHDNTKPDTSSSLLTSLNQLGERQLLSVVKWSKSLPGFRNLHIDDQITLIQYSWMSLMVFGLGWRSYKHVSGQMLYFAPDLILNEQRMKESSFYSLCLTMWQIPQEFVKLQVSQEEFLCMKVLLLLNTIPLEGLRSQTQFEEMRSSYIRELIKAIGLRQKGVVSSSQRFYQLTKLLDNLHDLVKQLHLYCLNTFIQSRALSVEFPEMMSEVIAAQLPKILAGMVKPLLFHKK
The assay is described as follows: Radioligand binding with human progesterone receptor cytosol ([3H]-progesterone competition). The conditions noted are these: PRA cytosol expressed in insect SF21 cells, [3H]Prog ~0.8 nM, 4° C. overnight; Ki by Cheng-Prusoff, KL ~4.5 nM; read-out: Ki (nM) PR.

The target of assay [2] is T2, human glucocorticoid receptor-α [GRX] isoform (Homo sapiens, UniProt P04150).
T2 construct: host or cells: insect SF21 cells (baculovirus)
T2 sequence (P04150 1-777): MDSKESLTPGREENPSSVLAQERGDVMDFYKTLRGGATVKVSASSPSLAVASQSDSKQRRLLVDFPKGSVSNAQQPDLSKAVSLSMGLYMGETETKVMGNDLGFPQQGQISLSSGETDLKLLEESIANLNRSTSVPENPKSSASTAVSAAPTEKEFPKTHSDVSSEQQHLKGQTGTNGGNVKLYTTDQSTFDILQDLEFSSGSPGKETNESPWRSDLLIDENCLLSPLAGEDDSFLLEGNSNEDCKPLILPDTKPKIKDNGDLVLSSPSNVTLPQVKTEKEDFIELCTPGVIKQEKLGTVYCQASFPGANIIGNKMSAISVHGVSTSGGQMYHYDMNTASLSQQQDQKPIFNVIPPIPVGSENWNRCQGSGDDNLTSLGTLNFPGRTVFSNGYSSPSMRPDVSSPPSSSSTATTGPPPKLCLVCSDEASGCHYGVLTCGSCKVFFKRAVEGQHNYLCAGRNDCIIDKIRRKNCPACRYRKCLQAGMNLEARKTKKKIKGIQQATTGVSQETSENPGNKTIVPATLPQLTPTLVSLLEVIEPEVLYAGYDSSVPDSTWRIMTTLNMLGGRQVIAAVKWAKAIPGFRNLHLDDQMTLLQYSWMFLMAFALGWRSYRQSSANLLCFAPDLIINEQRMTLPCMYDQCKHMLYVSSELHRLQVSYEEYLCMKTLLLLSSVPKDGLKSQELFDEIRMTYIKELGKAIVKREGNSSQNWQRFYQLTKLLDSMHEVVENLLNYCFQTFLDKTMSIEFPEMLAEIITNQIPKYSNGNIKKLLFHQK
Kind of assay: Radioligand binding with human glucocorticoid receptor cytosol ([3H]-dexamethasone competition).

The mark [3] stands for this setting: GRX cytosol expressed in insect SF21 cells, [3H]-Dex ~0.9 nM, 4° C. overnight, Ki by Cheng-Prusoff, KL ~[…], read-out: Ki (nM) GR.

Structures are written as SMILES. Read-outs that look alike come from different tables or passages of the source.

By Ki is commonly meant the dissociation constant of the complex between target and ligand, obtained from inhibition or displacement. `COc1cccc2c1-c1ccc3c(c1C(c1cccc(CCOS(C)(=O)=O)c1)O2)C(C)=CC(C)(C)N3` (stereo not drawn) [Example 315, 2,5-Dihydro-10-methoxy-5-(3-(2-methanesulfonyloxyethyl)phenyl)-2,2,4-trimethyl-1H-[1]benzopyrano[3,4-f]quinoline]: the inhibition constant Ki was at least 10000 nM in assay [1] and 13 nM in assay [2] (setting [3]).

For `COc1cccc2c1-c1ccc3c(c1C(c1cccc(CCSC)c1)O2)C(C)=CC(C)(C)N3` (stereo not drawn) [Example 316, 2,5-Dihydro-10-methoxy-5-(3-(2-methythioethyl)phenyl)-2,2,4-trimethyl-1H-[1]benzopyrano[3,4-f]quinoline], the figures for the Ki in assay [1] and in assay [2] (setting [3]) were at least 10000 nM and 11 nM, respectively.

Regarding `COc1cccc2c1-c1ccc3c(c1C(c1cccc(CCOC(=O)N(C)C)c1)O2)C(C)=CC(C)(C)N3` (stereo not drawn) [Example 317, 2,5-Dihydro-10-methoxy-5-(3-(2-(N,N-dimethylaminocarbonyloxy)ethyl)phenyl)-2,2,4-trimethyl-1H-[1]benzopyrano[3,4-f]quinoline], the figures for the inhibition constant (Ki) in assay [1] and in assay [2] (setting [3]) were at least 10000 nM and 6.5 nM, respectively.

As for `COc1cccc2c1-c1ccc3c(c1C(c1cccc(CCN(C)C)c1)O2)C(C)=CC(C)(C)N3` (stereo not drawn) [Example 318, 2,5-Dihydro-10-methoxy-5-(3-(2-(N,N-dimethylamino)ethyl)phenyl)-2,2,4-trimethyl-1H-[1]benzopyrano[3,4-f]quinoline], the Ki is at least 10000 nM in assay [1] and 553 nM in assay [2] (setting [3]).

Take `COc1cccc2c1-c1ccc3c(c1C(C1CC1)O2)C(C)=CC(C)(C)N3` (stereo not drawn) [Example 319, 2,5-Dihydro-10-methoxy-5-cyclopropyl-2,2,4-trimethyl-1H-[1]benzopyrano[3,4-f]quinoline]: the Ki in assay [1] is 492 nM; in assay [2] (setting [3]), 16 nM.

With `COc1cccc2c1-c1ccc3c(c1C(/C=C/c1ccccc1)O2)C(C)=CC(C)(C)N3` (stereo not drawn) [Example 321, trans 2,5-Dihydro-10-methoxy-5-(2-phenylethenyl)-2,2,4-trimethyl-1H-[1]benzopyrano[3,4-f]quinoline], the Ki in assay [1] came to 2880 nM; in assay [2] (setting [3]), 44 nM.

Turning to `COc1cccc2c1-c1ccc3c(c1C(C#Cc1ccccc1)O2)C(C)=CC(C)(C)N3` (stereo not drawn) [Example 322, 2,5-Dihydro-10-methoxy-5-(2-phenylethynyl)-2,2,4-trimethyl-1H-[1]benzopyrano[3,4-f]quinoline], the Ki in assay [1] amounted to 2300 nM; in assay [2] (setting [3]) it was 107 nM.

For `COc1cccc2c1-c1ccc3c(c1C(/C=C\c1ccccc1)O2)C(C)=CC(C)(C)N3` (stereo not drawn) [Example 323, cis 2,5-Dihydro-10-methoxy-5-(2-phenylethenyl)-2,2,4-trimethyl-1H-[1]benzopyrano[3,4-f]quinoline], the Ki was at least 10000 nM in assay [1] and 428 nM in assay [2] (setting [3]).

For `COc1cccc2c1-c1ccc3c(c1C(C1=CCCCC1)O2)C(C)=CC(C)(C)N3` (stereo not drawn) [Example 325, trans 2,5-Dihydro-10-methoxy-5-(1-cyclohexenyl)-2,2,4-trimethyl-1H-[1]benzopyrano[3,4-f]quinoline], the results for the inhibition constant (Ki) in assay [1] and in assay [2] (Ki (nM) GR) were at least 10000 nM and 24 nM, respectively.

As to `C=CCC1Oc2cccc(-c3ccco3)c2-c2ccc3c(c21)C(C)=CC(C)(C)N3` (stereo not drawn) [Example 326, 2,5-Dihydro-10-(2-furanyl)-5-(3-propenyl)-2,2,4-trimethyl-1H-[1]benzopyrano[3,4-f]quinoline], the Ki is at least 10000 nM in assay [1] and 228 nM in assay [2] (setting [3]).

`C=CCC1Oc2cccc(C#N)c2-c2ccc3c(c21)C(C)=CC(C)(C)N3` (stereo not drawn) [Example 327, 2,5-Dihydro-10-cyano-5-(3-propenyl)-2,2,4-trimethyl-1H-[1]benzopyrano[3,4-f]quinoline]: the results for the inhibition constant Ki in assay [1] and in assay [2] (setting [3]) were 1460 nM and 9.3 nM, respectively.

As for `C=CCC1Oc2cccc(CN)c2-c2ccc3c(c21)C(C)=CC(C)(C)N3` (stereo not drawn) [Example 331, 2,5-Dihydro-10-aminomethyl-5-(3-propenyl)-2,2,4-trimethyl-1H-[1]benzopyrano[3,4-f]quinolione], the Ki in assay [1] was at least 10000 nM; in assay [2] (setting [3]) it was 142 nM.

`C=CCC1Oc2cccc(COC)c2-c2ccc3c(c21)C(C)=CC(C)(C)N3` (stereo not drawn) [Example 332, 2,5-Dihydro-10-methoxymethyl-5-(3-propenyl)-2,2,4-trimethyl-1H-[1]benzopyrano[3,4-f]quinoline]: the Ki is at least 10000 nM in assay [1] and 18 nM in assay [2] (setting [3]).

Regarding `C=Cc1cccc2c1-c1ccc3c(c1C(c1ccccc1)O2)C(C)=CC(C)(C)N3` (stereo not drawn) [Example 333, 2,5-Dihydro-10-ethenyl-5-phenyl-2,2,4-trimethyl-1H-[1]benzopyrano[3,4-f]quinoline], the results for the inhibition constant Ki in assay [1] and in assay [2] (setting [3]) were 3670 nM and 5.6 nM, respectively.

On to `C#Cc1cccc2c1-c1ccc3c(c1C(c1ccccc1)O2)C(C)=CC(C)(C)N3` (stereo not drawn) [Example 334, 2,5-Dihydro-10-ethynyl-5-phenyl-2,2,4-trimethyl-1H-[1]benzopyrano[3,4-f]quinoline], for which the Ki in assay [1] was at least 10000 nM; in assay [2] (setting [3]), 9.5 nM.

As for `CC1=CC(C)(C)Nc2ccc3c(c21)C(c1ccccc1)Oc1cccc(CO)c1-3` (stereo not drawn) [Example 336, 2,5-Dihydro-10-(hydroxymethyl)-5-phenyl-2,2,4-trimethyl-1H-[1]benzopyrano[3,4-f]quinoline], the inhibition constant Ki in assay [1] amounted to 1560 nM; in assay [2] (setting [3]) it was 9.5 nM.

For `CC1=CC(C)(C)Nc2ccc3c(c21)C(c1ccccc1)Oc1cccc(C=O)c1-3` (stereo not drawn) [Example 337, 2,5-Dihydro-10-formyl-5-phenyl-2,2,4-trimethyl-1H-[1]benzopyrano[3,4-f]quinoline], the inhibition constant Ki came to 702 nM in assay [1] and 3.3 nM in assay [2] (setting [3]).

In the case of `COCc1cccc2c1-c1ccc3c(c1C(c1ccccc1)O2)C(C)=CC(C)(C)N3` (stereo not drawn) [Example 338, 2,5-Dihydro-10-(methoxymethyl)-5-phenyl-2,2,4-trimethyl-1H-[1]benzopyrano[3,4-f]quinoline], the inhibition constant (Ki) is at least 10000 nM in assay [1] and 61 nM in assay [2] (setting [3]).

In the case of `C=Cc1cccc2c1-c1ccc3c(c1C(C1C=CCCC1)O2)C(C)=CC(C)(C)N3` (stereo not drawn) [Example 340], the Ki in assay [1] was determined as 254 nM; in assay [2] (setting [3]), 1.8 nM.

`C=Cc1cccc2c1-c1ccc3c(c1C(C1C=C(C)CCC1)O2)C(C)=CC(C)(C)N3` (stereo not drawn) [Example 341]: the inhibition constant (Ki) in assay [1] is at least 10000 nM; in assay [2] (setting [3]), 2.5 nM.

For the molecule `C=CCC1Oc2cccc(SC)c2-c2ccc3c(c21)C(C)=CC(C)(C)N3` (stereo not drawn) [Example 342, 2,5-Dihydro-5-(3-propenyl)-10-methylthio-2,2,4-trimethyl-1H-[1]benzopyrano[3,4-f]quinoline], the Ki was at least 10000 nM in assay [1] and 2590 nM in assay [2] (setting [3]).

Take `C=CCC1Oc2cccc(SC)c2-c2ccc3c(c21)C(C)=CC(C)(C)N3` (stereo not drawn) [Example 343, 2,5-Dihydro-5-(3-propenyl)-10-methylthio-2,2,4-trimethyl-1H-[1]benzopyrano[3,4-f]quinoline]: the results for the inhibition constant (Ki) in assay [1] and in assay [2] (setting [3]) were 4700 nM and 5.2 nM, respectively.

Turning to `CC1=CC(C)(C)Nc2ccc3c(c21)C(c1ccccc1)Oc1cccc(OC(F)F)c1-3` (stereo not drawn) [Example 345, 10-(Difluoromethoxy)-2,5-dihydro-5-phenyl-2,2,4-trimethyl-1H-[1]benzopyrano[3,4-f]quinoline], the inhibitory constant (Ki) turned out to be 3000 nM in assay [1] and 8.7 nM in assay [2] (setting [3]).

As to `CC1=CC(C)(C)Nc2ccc3c(c21)C(c1ccccc1)Oc1cccc(OC(F)(F)Br)c1-3` (stereo not drawn) [Example 346, 10-(Bromodifluoromethoxy)-2,5-dihydro-5-phenyl-2,2,4-trimethyl-1H-[1]benzopyrano[3,4-f]quinoline], the Ki in assay [1] is 5110 nM; in assay [2] (setting [3]) it was 44 nM.
